Patent US20250176599A1, “FLAVOR COMPOSITION AND FOOD AND BEVERAGE” (TAKASAGO INTERNATIONAL CORPORATION, priority 2021, published 2025)

Legend:
[1] = Sensory evaluation of aqueous solution VI containing 1,5-octadien-3-ol 10 ppb: off-flavor intensity and masking component intensity
Description: (§1) In ion-exchanged water, each degradation component was added to achieve the concentrations listed in Table 1, and aqueous solutions I to VI containing these degradation components were prepared.
(§2) For the aforementioned aqueous solutions containing degradation components, nootkatone was added at the concentrations listed in Table 2 to confirm the intensity of the off-flavor (masking effect) in each sample and the intensity of the masking component itself (the impact on the flavor of the food and/or beverage itself).
(§3) The test was conducted as follows. Eight experienced panelists were selected to conduct a sensory evaluation. The intensity of the off-flavor of the aqueous solution containing the degradation components derived from unsaturated fatty acids, without added masking components, was set as “Evaluation: 4.” The ion-exchanged water free of any degradation components was set as “Evaluation: 0.” The intensity of the off-flavor (masking effect) of each sample was then relatively evaluated according to the following evaluation criteria.
(§4) • Off-flavor is strongly sensed: 4 points • Off-flavor is sensed: 3 points • Off-flavor is slightly sensed: 2 points • Off-flavor is barely sensed: 1 point • Off-flavor is not sensed at all: 0 points
(§5) Also, the intensity of the masking components (impact on the flavor of the food and/or beverage itself) was absolutely evaluated according to the following evaluation criteria.
(§6) • Masking component is strongly sensed: 4 points • Masking component is sensed: 3 points • Masking component is slightly sensed: 2 points • Masking component is barely sensed: 1 point • Masking component is not sensed at all: 0 points

[2] = Overall conclusion of the sensory evaluation across aqueous solutions I to VI
Description: as §1, §2, §3, §4, §5, §6

[3] = Sensory evaluation of aqueous solution I containing (E)-2-nonenal 1 ppb: off-flavor intensity and masking component intensity
Description: as §1, §2, §3, §4, §5, §6

[4] = Sensory evaluation of aqueous solution IV containing 1,5-octadien-3-one 100 ppt: off-flavor intensity and masking component intensity
Description: as §1, §2, §3, §4, §5, §6

[5] = Sensory evaluation of aqueous solution V containing 1-octen-3-ol 10 ppb: off-flavor intensity and masking component intensity
Description: as §1, §2, §3, §4, §5, §6

[6] = Sensory evaluation of aqueous solution III containing 1-octen-3-one 1 ppb: off-flavor intensity and masking component intensity
Description: as §1, §2, §3, §4, §5, §6

[7] = Sensory evaluation of aqueous solution II containing (E)-2-octenal 10 ppb: off-flavor intensity and masking component intensity
Description: as §1, §2, §3, §4, §5, §6

[8] = aqueous solution VI, 1 ppb added, average panel score
[9] = aqueous solution VI, 1 ppm added, average panel score
[10] = aqueous solution VI, 10 ppb added, average panel score
[11] = aqueous solution VI, 10 ppm added, average panel score
[12] = aqueous solution VI, 50 ppm added, average panel score
[13] = aqueous solution VI, 100 ppb added, average panel score
[14] = aqueous solution VI, 100 ppm added, average panel score
[15] = aqueous solution VI, 100 ppt added, average panel score
[16] = 1 ppb added, average panel score
[17] = 1 ppm added, average panel score
[18] = 10 ppb added, average panel score
[19] = 10 ppm added, average panel score
[20] = 50 ppm added, average panel score
[21] = 100 ppb added, average panel score
[22] = 100 ppm added, average panel score
[23] = 100 ppt added, average panel score
[24] = aqueous solution IV, 1 ppb added, average panel score
[25] = aqueous solution IV, 1 ppm added, average panel score
[26] = aqueous solution IV, 10 ppb added, average panel score
[27] = aqueous solution IV, 10 ppm added, average panel score
[28] = aqueous solution IV, 50 ppm added, average panel score
[29] = aqueous solution IV, 100 ppb added, average panel score
[30] = aqueous solution IV, 100 ppm added, average panel score
[31] = aqueous solution IV, 100 ppt added, average panel score

C=C(C)[C@@H]1CCC2=CC(=O)C[C@@H](C)[C@]2(C)C1 [Nootkatone, nootkatone]
Off-Flavor Intensity ([1]; 1 ppb added, aqueous solution VI, 1,5-octadien-3-ol 10 ppb, average score 0-4): 2.5 points | Off-Flavor Intensity ([1]; 1 ppm added, aqueous solution VI, 1,5-octadien-3-ol 10 ppb, average score 0-4): 1.1 points | Off-Flavor Intensity ([1]; 5 ppm added, aqueous solution VI, 1,5-octadien-3-ol 10 ppb, average score 0-4): 0.6 points | Off-Flavor Intensity ([1]; 10 ppb added, aqueous solution VI, 1,5-octadien-3-ol 10 ppb, average score 0-4): 2.1 points | Off-Flavor Intensity ([1]; 10 ppm added, aqueous solution VI, 1,5-octadien-3-ol 10 ppb, average score 0-4): 0.6 points | Off-Flavor Intensity ([1]; 10 ppt added, aqueous solution VI, 1,5-octadien-3-ol 10 ppb, average score 0-4): 3.1 points | Off-Flavor Intensity ([1]; 100 ppb added, aqueous solution VI, 1,5-octadien-3-ol 10 ppb, average score 0-4): 1.5 points | Off-Flavor Intensity ([1]; 100 ppt added, aqueous solution VI, 1,5-octadien-3-ol 10 ppb, average score 0-4): 3.0 points | concentration that masks the off-flavor and does not affect the flavor of the food and/or beverage itself, lower limit [2]: ≥ 100 ppt | concentration that masks the off-flavor and does not affect the flavor of the food and/or beverage itself, upper limit [2]: ≤ 1 ppm | Off-Flavor Intensity ([3]; 1 ppb added, (E)-2-nonenal 1 ppb, average score 0-4): 2.8 points | Off-Flavor Intensity ([3]; 1 ppm added, (E)-2-nonenal 1 ppb, average score 0-4): 1.8 points | Off-Flavor Intensity ([3]; 5 ppm added, (E)-2-nonenal 1 ppb, average score 0-4): 1.1 points | Off-Flavor Intensity ([3]; 10 ppb added, (E)-2-nonenal 1 ppb, average score 0-4): 2.4 points | Off-Flavor Intensity ([3]; 10 ppm added, (E)-2-nonenal 1 ppb, average score 0-4): 0.8 points | Off-Flavor Intensity ([3]; 10 ppt added, (E)-2-nonenal 1 ppb, average score 0-4): 3.4 points | Off-Flavor Intensity ([3]; 100 ppb added, (E)-2-nonenal 1 ppb, average score 0-4): 2.1 points | Off-Flavor Intensity ([3]; 100 ppt added, (E)-2-nonenal 1 ppb, average score 0-4): 3.3 points | Off-Flavor Intensity ([4]; 1 ppb added, aqueous solution IV, 1,5-octadien-3-one 100 ppt, average score 0-4): 3.1 points | Off-Flavor Intensity ([4]; 1 ppm added, aqueous solution IV, 1,5-octadien-3-one 100 ppt, average score 0-4): 2.0 points | Off-Flavor Intensity ([4]; 5 ppm added, aqueous solution IV, 1,5-octadien-3-one 100 ppt, average score 0-4): 1.3 points | Off-Flavor Intensity ([4]; 10 ppb added, aqueous solution IV, 1,5-octadien-3-one 100 ppt, average score 0-4): 2.9 points | Off-Flavor Intensity ([4]; 10 ppm added, aqueous solution IV, 1,5-octadien-3-one 100 ppt, average score 0-4): 0.9 points | Off-Flavor Intensity ([4]; 10 ppt added, aqueous solution IV, 1,5-octadien-3-one 100 ppt, average score 0-4): 3.6 points | Off-Flavor Intensity ([4]; 100 ppb added, aqueous solution IV, 1,5-octadien-3-one 100 ppt, average score 0-4): 2.4 points | Off-Flavor Intensity ([4]; 100 ppt added, aqueous solution IV, 1,5-octadien-3-one 100 ppt, average score 0-4): 3.5 points | Off-Flavor Intensity ([5]; 1 ppb added, 1-octen-3-ol 10 ppb, average score 0-4): 2.5 points | Off-Flavor Intensity ([5]; 1 ppm added, 1-octen-3-ol 10 ppb, average score 0-4): 1.5 points | Off-Flavor Intensity ([5]; 5 ppm added, 1-octen-3-ol 10 ppb, average score 0-4): 0.9 points | Off-Flavor Intensity ([5]; 10 ppb added, 1-octen-3-ol 10 ppb, average score 0-4): 2.5 points | Off-Flavor Intensity ([5]; 10 ppm added, 1-octen-3-ol 10 ppb, average score 0-4): 0.5 points | Off-Flavor Intensity ([5]; 10 ppt added, 1-octen-3-ol 10 ppb, average score 0-4): 3.4 points | Off-Flavor Intensity ([5]; 100 ppb added, 1-octen-3-ol 10 ppb, average score 0-4): 1.8 points | Off-Flavor Intensity ([5]; 100 ppt added, 1-octen-3-ol 10 ppb, average score 0-4): 2.9 points | Off-Flavor Intensity ([6]; 1 ppb added, 1-octen-3-one 1 ppb, average score 0-4): 2.6 points | Off-Flavor Intensity ([6]; 1 ppm added, 1-octen-3-one 1 ppb, average score 0-4): 1.6 points | Off-Flavor Intensity ([6]; 5 ppm added, 1-octen-3-one 1 ppb, average score 0-4): 1.1 points | Off-Flavor Intensity ([6]; 10 ppb added, 1-octen-3-one 1 ppb, average score 0-4): 2.3 points | Off-Flavor Intensity ([6]; 10 ppm added, 1-octen-3-one 1 ppb, average score 0-4): 0.9 points | Off-Flavor Intensity ([6]; 10 ppt added, 1-octen-3-one 1 ppb, average score 0-4): 3.4 points | Off-Flavor Intensity ([6]; 100 ppb added, 1-octen-3-one 1 ppb, average score 0-4): 2.1 points | Off-Flavor Intensity ([6]; 100 ppt added, 1-octen-3-one 1 ppb, average score 0-4): 3.1 points | Off-Flavor Intensity ([7]; 1 ppb added, (E)-2-octenal 10 ppb, average score 0-4): 2.6 points | Off-Flavor Intensity ([7]; 1 ppm added, (E)-2-octenal 10 ppb, average score 0-4): 1.5 points | Off-Flavor Intensity ([7]; 5 ppm added, (E)-2-octenal 10 ppb, average score 0-4): 0.6 points | Off-Flavor Intensity ([7]; 10 ppb added, (E)-2-octenal 10 ppb, average score 0-4): 2.5 points | Off-Flavor Intensity ([7]; 10 ppm added, (E)-2-octenal 10 ppb, average score 0-4): 0.4 points | Off-Flavor Intensity ([7]; 10 ppt added, (E)-2-octenal 10 ppb, average score 0-4): 3.5 points | Off-Flavor Intensity ([7]; 100 ppb added, (E)-2-octenal 10 ppb, average score 0-4): 1.9 points | Off-Flavor Intensity ([7]; 100 ppt added, (E)-2-octenal 10 ppb, average score 0-4): 3.1 points

CC1CCC(C(C)C)C(OCCO)C1 (stereo not shown) [2-menthoxyethanol]
Masking Component Intensity [1, 8]: 0.6 | Off-Flavor Intensity [1, 8]: 3.3 | Masking Component Intensity [1, 9]: 2.0 | Off-Flavor Intensity [1, 9]: 2.0 | Masking Component Intensity [1, 10]: 1.0 | Off-Flavor Intensity [1, 10]: 2.8 | Masking Component Intensity [1, 11]: 2.5 | Off-Flavor Intensity [1, 11]: 1.9 | Masking Component Intensity [1, 12]: 3.8 | Off-Flavor Intensity [1, 12]: 1.5 | Masking Component Intensity [1, 13]: 1.8 | Off-Flavor Intensity [1, 13]: 2.6 | Masking Component Intensity [1, 14]: 4.0 | Off-Flavor Intensity [1, 14]: 1.3 | Masking Component Intensity [1, 15]: 0.3 | Off-Flavor Intensity [1, 15]: 3.4 | concentration that masks the off-flavor and does not affect the flavor of the food and/or beverage itself, lower limit [2]: ≥ 10 ppb | concentration that masks the off-flavor and does not affect the flavor of the food and/or beverage itself, upper limit [2]: ≤ 10 ppm | Masking Component Intensity [3, 16]: 0.5 | Off-Flavor Intensity [3, 16]: 3.4 | Masking Component Intensity [3, 17]: 1.6 | Off-Flavor Intensity [3, 17]: 2.5 | Masking Component Intensity [3, 18]: 0.8 | Off-Flavor Intensity [3, 18]: 3.0 | Masking Component Intensity [3, 19]: 2.3 | Off-Flavor Intensity [3, 19]: 1.8 | Masking Component Intensity [3, 20]: 3.5 | Off-Flavor Intensity [3, 20]: 1.4 | Masking Component Intensity [3, 21]: 1.3 | Off-Flavor Intensity [3, 21]: 2.8 | Masking Component Intensity [3, 22]: 3.8 | Off-Flavor Intensity [3, 22]: 1.0 | Masking Component Intensity [3, 23]: 0.3 | Off-Flavor Intensity [3, 23]: 3.8 | Masking Component Intensity [4, 24]: 0.5 | Off-Flavor Intensity [4, 24]: 3.4 | Masking Component Intensity [4, 25]: 2.3 | Off-Flavor Intensity [4, 25]: 2.4 | Masking Component Intensity [4, 26]: 1.0 | Off-Flavor Intensity [4, 26]: 3.0 | Masking Component Intensity [4, 27]: 2.6 | Off-Flavor Intensity [4, 27]: 2.3 | Masking Component Intensity [4, 28]: 3.4 | Off-Flavor Intensity [4, 28]: 1.9 | Masking Component Intensity [4, 29]: 1.6 | Off-Flavor Intensity [4, 29]: 2.5 | Masking Component Intensity [4, 30]: 3.9 | Off-Flavor Intensity [4, 30]: 1.8 | Masking Component Intensity [4, 31]: 0.1 | Off-Flavor Intensity [4, 31]: 3.5 | Masking Component Intensity [5, 16]: 0.4 | Off-Flavor Intensity [5, 16]: 3.1 | Masking Component Intensity [5, 17]: 1.8 | Off-Flavor Intensity [5, 17]: 2.3 | Masking Component Intensity [5, 18]: 0.5 | Off-Flavor Intensity [5, 18]: 2.6 | Masking Component Intensity [5, 19]: 2.6 | Off-Flavor Intensity [5, 19]: 2.3 | Masking Component Intensity [5, 20]: 3.5 | Off-Flavor Intensity [5, 20]: 1.8 | Masking Component Intensity [5, 21]: 1.4 | Off-Flavor Intensity [5, 21]: 2.5 | Masking Component Intensity [5, 22]: 3.8 | Off-Flavor Intensity [5, 22]: 1.6 | Masking Component Intensity [5, 23]: 0.1 | Off-Flavor Intensity [5, 23]: 3.3 | Masking Component Intensity [6, 16]: 0.8 | Off-Flavor Intensity [6, 16]: 3.1 | Masking Component Intensity [6, 17]: 1.9 | Off-Flavor Intensity [6, 17]: 2.4 | Masking Component Intensity [6, 18]: 1.1 | Off-Flavor Intensity [6, 18]: 2.9 | Masking Component Intensity [6, 19]: 2.5 | Off-Flavor Intensity [6, 19]: 2.3 | Masking Component Intensity [6, 20]: 3.8 | Off-Flavor Intensity [6, 20]: 2.0 | Masking Component Intensity [6, 21]: 1.8 | Off-Flavor Intensity [6, 21]: 2.5 | Masking Component Intensity [6, 22]: 3.9 | Off-Flavor Intensity [6, 22]: 2.0 | Masking Component Intensity [6, 23]: 0.6 | Off-Flavor Intensity [6, 23]: 3.3 | Masking Component Intensity [7, 16]: 0.8 | Off-Flavor Intensity [7, 16]: 3.3 | Masking Component Intensity [7, 17]: 2.0 | Off-Flavor Intensity [7, 17]: 2.4 | Masking Component Intensity [7, 18]: 1.1 | Off-Flavor Intensity [7, 18]: 2.9 | Masking Component Intensity [7, 19]: 2.6 | Off-Flavor Intensity [7, 19]: 2.0 | Masking Component Intensity [7, 20]: 3.4 | Off-Flavor Intensity [7, 20]: 1.5 | Masking Component Intensity [7, 21]: 1.6 | Off-Flavor Intensity [7, 21]: 2.5 | Masking Component Intensity [7, 22]: 3.8 | Off-Flavor Intensity [7, 22]: 1.3 | Masking Component Intensity [7, 23]: 0.5 | Off-Flavor Intensity [7, 23]: 3.4
